{"source": "patent US6734186B1", "about": "“Compounds for the treatment of female sexual dysfunction” (Pfizer Inc., priority 1999, dated 2004)", "key": {"[1]": {"test_system": "isolated rabbit vagina", "test": "Relaxation of precontracted (1 μM phenylephrine) isolated rabbit vaginal strips", "assay_type": "cell-based", "description": "3.7 (a). Rabbit vagina in vitro preparation:—Female New Zealand white rabbits (2.0-3.0 kg) were killed by cervical dislocation. The abdominal cavity was opened and the vagina excised. Tissue strips were mounted longitudinally in Wesley Co. 5 ml silanised organ chambers with braided silk sutures (6/0 gauge) at an initial resting tension of 1.5 g in Krebs bicarbonate buffer maintained at 37° C. and gassed with 95%O2/5%CO2. The upper ligature of each tissue strip was attached to a 10 g capacity force-displacement transducer and changes in isometric force were measured and recorded using a DART in vitro data capture system. Tissues were allowed to equilibrate for 1.5 hours and were regularly washed with Krebs.\nEach tissue was contracted using 1 μM bath concentration of phenylephrine. […] Tissues then received either a test agent (eg NEP or PDE inhibitor) or DMSO vehicle (time matched control).\nFor the purpose of curve fitting the minimum relaxation response was constrained to 0% and the maximum relaxation response was allowed to free fit."}, "[2]": {"test_system": "human vaginal smooth muscles cell cultures", "settings": "VIP 0.5 μM; Traish 1999; cited from earlier work"}, "[3]": {"test_system": "anaesthetised rabbit", "description": "Female New Zealand rabbits (˜2.5 kg) were pre-medicated with a combination of Medetomidine (Domitor®) 0.5 ml/kg i.m., and Ketamine (Vetalar®) 0.25 ml/kg i.m. whilst maintaining oxygen intake via a face mask. The rabbits were tracheotomised using a Portex™ uncuffed endotracheal tube 3 ID., connected to ventilator and maintained at a ventilation rate of 30-40 breaths per minute, with an approximate tidal volume of 18-20 ml, and a maximum airway pressure of 10 cm H2O. Anaesthesia was then switched to Isoflurane and ventilation continued with O2 at 2 l/min. The right marginal ear vein was cannulated using a 23G or 24G catheter, and Lactated Ringer solution perfused at 0.5 ml/min. The rabbit was maintained at 3% Isoflurane during invasive surgery, dropping to 2% for maintenance anaesthesia.\nThe left groin area of the rabbit was shaved and a vertical incision was made approximately 5 cm in length along the thigh. The femoral vein and artery were exposed, isolated and then cannulated with a PVC catheter (17G) for the infusion of drugs and compounds. Cannulation was repeated for the femoral artery, inserting the catheter to a depth of 10 cm to ensure that the catheter reached the abdominal aorta. This arterial catheter was linked to a Gould system to record blood pressure. Samples for blood gas analysis were also taken via the arterial catheter. Systolic and diastolic pressures were measured, and the mean arterial pressure calculated using the formula (diastolic x2÷systolic)+3. Heart rate was measured via the pulse oxymeter and Po-ne-mah data acquisition software system (Ponemah Physiology Platform, Gould Instrument Systems Inc)."}, "[4]": {"test_system": "anaesthetised rabbit model of sexual arousal", "test": "Increase in clitoral blood flow after iv infusion of vasoactive agents, anaesthetised rabbit model", "assay_type": "in vivo", "settings": "VIP 200 μg/kg iv infusion", "description": "(§1) A ventral midline incision was made, at the caudal end of the pubis, to expose the pubic area. Connective tissue was removed to expose the tunica of the clitoris, ensuring that the wall was free from small blood vessels. The external vaginal wall was also exposed by removing any connective tissue. One laser Doppler flow probe was inserted 3 cm into the vagina, so that half the probe shaft was still visible. A second probe was positioned so that it lay just above the external clitoral wall. The position of these probes was then adjusted until a signal was obtained. A second probe was placed just above the surface of a blood vessel on the external vaginal wall. Both probes were clamped in position.\n(§2) Vaginal and clitoral blood flow was recorded either as numbers directly from the Flowmeter using Po-ne-mah data acquisition software (Ponemah Physiology Platform, Gould Instrument Systems Inc), or indirectly from Gould chart recorder trace. Calibration was set at the beginning of the experiment (0-125 ml/min/100 g tissue)."}, "[5]": {"test_system": "anaesthetised rabbit model of sexual arousal", "test": "Increase in vaginal blood flow after iv infusion of vasoactive agents, anaesthetised rabbit model of sexual arousal (laser Doppler)", "assay_type": "in vivo", "description": "as §1, §2\nAn initial infusion of Hepsaline (50UI/ml) was infused to act as a negative control."}}, "note": "Entries after “also recorded” stand apart in the source; their conditions may differ. Like-named read-outs stand apart in the source and are kept apart here.", "data": [{"smiles": "CC[C@H](C)[C@H](NC(=O)[C@H](CO)NC(=O)[C@H](CC(N)=O)NC(=O)[C@H](CC(C)C)NC(=O)[C@H](Cc1ccc(O)cc1)NC(=O)[C@H](CCCCN)NC(=O)[C@H](CCCCN)NC(=O)[C@@H](NC(=O)[C@H](C)NC(=O)[C@H](CCSC)NC(=O)[C@H](CCC(N)=O)NC(=O)[C@H](CCCCN)NC(=O)[C@H](CCCNC(=N)N)NC(=O)[C@H](CC(C)C)NC(=O)[C@H](CCCNC(=N)N)NC(=O)[C@@H](NC(=O)[C@H](Cc1ccc(O)cc1)NC(=O)[C@H](CC(N)=O)NC(=O)[C@H](CC(=O)O)NC(=O)[C@@H](NC(=O)[C@H](Cc1ccccc1)NC(=O)[C@@H](NC(=O)[C@H](C)NC(=O)[C@H](CC(=O)O)NC(=O)[C@H](CO)NC(=O)[C@@H](N)Cc1c[nH]cn1)C(C)C)[C@@H](C)O)[C@@H](C)O)C(C)C)C(=O)N[C@@H](CC(C)C)C(=O)N[C@@H](CC(N)=O)C(N)=O", "note": "[VIP, Vasoactive intestinal peptide]", "values": [{"measurement": "relaxation of precontracted isolated vagina", "setting": "[1]; VIP 0.1 μM", "result": "circa 80%"}, {"measurement": "EC50", "setting": "[1]; precontracted with 1 μM phenylephrine, read-out: EC50 for relaxation in isolated vaginal tissue", "result": "0.0188 ± 0.0006", "unit": "µM"}, {"measurement": "effect on cAMP levels in vaginal smooth muscle cell cultures", "setting": "[2]", "result": "no effect; also recorded: fails to elevate"}, {"measurement": "increase in heart rate", "setting": "[3]; VIP 6.0 μg/kg iv", "result": "16±4", "unit": "beats per minute"}, {"measurement": "reduction in mean arterial blood pressure", "setting": "[3]; VIP 6.0 μg/kg iv", "result": "13.2±0.7", "unit": "mm Hg"}, {"measurement": "increase in heart rate", "setting": "[3]; VIP 60.0 μg/kg iv", "result": "111±30", "unit": "beats per minute"}, {"measurement": "reduction in mean arterial blood pressure", "setting": "[3]; VIP 60.0 μg/kg iv", "result": "14.7±1.37", "unit": "mm Hg"}, {"measurement": "subsequent increase in mean arterial blood pressure", "setting": "[3]; VIP 60.0 μg/kg iv, following heart rate increase", "result": "8.5±1.4", "unit": "mm Hg"}, {"measurement": "effect on mean arterial blood pressure", "setting": "[3]; anaesthetised rabbit", "result": "significant depression"}, {"measurement": "increase in clitoral blood flow", "setting": "[4]", "result": 115, "unit": "%"}, {"measurement": "increase in vaginal blood flow", "setting": "[5]; VIP 60 μg/kg intravenous", "result": "24.7±3.6", "unit": "ml/min/100 g tissue"}, {"measurement": "time blood flow remained elevated above basal post-infusion", "setting": "[5]; VIP 60 μg/kg intravenous", "result": "about 11 minutes"}, {"measurement": "increase in vaginal blood flow", "setting": "[5]; VIP 6.0 g/kg (so in the source)", "result": "7.5±1.3", "unit": "ml/min/100 g tissue"}]}]}
